Measured values as given in article PMC3894558, “Chemical signatures and new drug targets for gametocytocidal drug development” (Scientific Reports, 2014).
pIC50: −log10 of the molar value. Read-outs that look alike come from different tables or passages of the source.

Test system: P. falciparum 3D7 gametocytes
Assay: alamarBlue gametocyte viability assay, strain 3D7
Assay type: cell-based, Plasmodium falciparum
Conditions: Malaria Box; for Max Resp: DMSO set at 0%, 100 nM epoxomicin set at -100%; for Curve Class / pIC50 / IC50: stages III-V 3D7 gametocytes; for pIC50 / IC50: 11 concentrations, 1:3 dilution; for pIC50: read-out: IC50; call rule not given here

Compound	Max Resp [%]	Curve Class	pIC50	IC50
Oc1ccc(Br)cc1CN1CCN(Cc2ccc(Cl)cc2)CC1 [MMV665809]	-58	-1.2	5.43	–
Clc1ccc2[nH]c3c(NCCCN4CCOCC4)ncnc3c2c1 [MMV006587]	-49	-2.2	–	Inactive
COc1cc(OC)c(N(C)C(=O)c2cc3c(s2)-c2ccccc2S(=O)(=O)C3)cc1Cl [MMV006427]	-74	-2.2	4.93	–
O=C(NNc1cc(N2CCCC2)nc(N2CCCC2)n1)c1ccccc1 [MMV396770]	-93	-2.1	4.98	–
Cc1ccc(C)c(Cn2c(N3CCC(C(=O)NCc4cccs4)CC3)nc3ccccc32)c1 [MMV019741]	-65	-2.2	4.43	–
COc1ccc2nc(C)cc(Nc3ccccc3O)c2c1 [MMV274073]	-66	-2.2	4.63	–
Cc1cc(NC(=O)c2ccc(-c3ccccc3)cc2)no1 [MMV018984]	14	4	–	Inactive
O=C(NC1CCCC1)c1ccc(N2CCC(NCc3cccc(C(F)(F)F)c3)CC2)cc1 [MMV666070]	-47	-2.2	–	Inactive
COc1cc(C(=O)Nc2ccc(-c3nc4ccccc4[nH]3)cc2)cc(OC)c1OC [MMV665898]	-26	4	–	Inactive
Cc1ccc(F)cc1NC(=O)c1cc(Cl)ccc1Nc1ccccc1 [MMV007275]	-41	-2.2	–	Inactive
CCOC(=O)C1=C(C)N=c2sc(=Cc3cc(Cl)ccc3O)c(=O)n2C1c1ccc(OC)cc1 (stereo not drawn) [MMV665971]	-40	-1.2	5.53	–
COc1cccc(Nc2nc(NCCO)c3ccccc3n2)c1.Cl [MMV011944]	-68	-2.2	4.83	–
O=C(NCC(c1ccsc1)N1CCCCCC1)c1ccc(C(F)(F)F)cc1 (stereo not drawn) [MMV396672]	-37	-2.2	–	Inactive
O=C(Nc1ccc(Cl)cc1C(=O)Nc1ccncc1)c1ccc(Cl)cc1Cl [MMV666057]	-57	-2.2	4.53	–
COc1ccc(-n2ccnc2SCC(=O)Nc2cc(C)ccc2C)c(OC)c1 [MMV019258]	-8	4	–	Inactive
O=C(NCc1ccco1)C1CCN(S(=O)(=O)c2ccc(Cl)cc2)CC1 [MMV006188]	19	4	–	Inactive
Cc1[nH]c(-c2ccc(F)cc2)cc1C(=O)NC1CCN(Cc2ccccc2)CC1 [MMV019738]	-61	-2.2	4.53	–
CC(C)(C)c1ccc(C(=O)Nc2c3c(nn2-c2cccc(Cl)c2)CSC3)cc1 [MMV666123]	-6	4	–	Inactive
CCc1c(C)c(=N)c2ccccc2n1C.I [MMV006278]	-52	-2.2	–	Inactive
COc1ccc2c(=O)cc(C(Cl)(Cl)Cl)oc2c1 [MMV665820]	-101	-1.1	5.43	–

Compound	Max Resp [%]	Curve Class	pIC50	IC50
COc1ccc(-c2nonc2NC(=O)c2cccc(Cl)c2)cc1OC [MMV020660]	-67	-2.2	4.63	–
Cc1cc(C)c2nc(N3CCC(C(=O)NCCCN4CCC(N5CCCCC5)CC4)CC3)sc2c1 [MMV019780]	-106	-1.1	5.38	–
COc1ccc2c(c1OC)C(=O)N1c3ccccc3N=C(c3ccc(C)cc3)CC21 (stereo not drawn) [MMV000917]	-63	-2.2	4.53	–
CC1CC(C)CN(C(=O)c2ccc(Cl)cc2Cl)C1 (stereo not drawn) [MMV001344]	-13	4	–	Inactive
CCOC(=O)C1CCN(C(=O)CN2C(=O)c3ccccc3C2c2c[nH]c3ccccc23)CC1 (stereo not drawn) [MMV011576]	-98	-1.1	5.43	–
COc1cc(C(=O)Nc2nc3c(cc4c5c(cccc53)CC4)s2)cc(OC)c1OC [MMV396665]	-24	4	–	Inactive
COc1cccc(C(=O)NC(c2ccc(C)cc2)c2cc(Cl)c3cccnc3c2O)c1 (stereo not drawn) [MMV665969]	-76	-2.2	4.93	–
O=C(Nc1ccc(-c2nc3cc4ccccc4cc3[nH]2)cc1)c1cccc(Br)c1 [MMV019241]	-32	-2.4	–	Inactive
Cl.OC(CNCc1ccccc1)Cn1c2ccccc2c2ccccc21 (stereo not drawn) [MMV000839]	-97	-1.1	5.08	–
CC(=O)c1sc(NC(=O)Nc2ccc(C)cc2C)nc1C [MMV665894]	-23	4	–	Inactive
COc1nc(Nc2ccc(C(C)C)cc2)nc(OC)n1 [MMV007808]	-9	4	–	Inactive
OCCNc1nc(Nc2ccc(Cl)c(Cl)c2)nc2ccccc12 [MMV001041]	-63	-2.2	4.83	–
C=CCc1c(C)nc2ccccc2c1O [MMV006913]	0	4	–	Inactive
Cc1cc(NC(=O)c2cccc(C(F)(F)F)c2)n(-c2nc(-c3ccc4c(c3)OCO4)cs2)n1 [MMV396681]	-3	4	–	Inactive
Nc1ccn([C@@H]2O[C@H](CO)[C@@H](O)[C@H]2O)c(=O)n1 [MMV638723]	-5	4	–	Inactive
COc1ccc(CCn2c(=N)c(C(=O)NCc3cccnc3)cc3c(=O)n4cccc(C)c4nc32)cc1 [MMV667488]	-32	-1.2	5.58	–
CNCCCNc1ccnc2cc(Cl)ccc12 [MMV020500]	-63	-1.2	6.63	–
Cl.Clc1cc(Br)ccc1-c1ccc(CNCC2CCNCC2)o1 [MMV019918]	-106	-1.1	5.73	–
CCOc1cc2c(cc1OCC)C(c1cc(C)c(O)c(C)c1)NCC2.Cl (stereo not drawn) [MMV000483]	-82	-1.1	5.28	–
COc1cc2c(cc1OC)C1=NNC(=O)C1=NC(C)(C)C2 [MMV084940]	-133	-1.1	5.88	–

Compound	Max Resp [%]	Curve Class	pIC50	IC50
CCOc1c(Cl)cc(CNC(C)C(O)c2ccccc2)cc1OC (stereo not drawn) [MMV665857]	-77	-2.2	4.83	–
CCCN(CCC)CC(O)COc1ccccc1C(=O)Nc1ccccc1 (stereo not drawn) [MMV006455]	-40	-1.2	6.13	–
CCCCc1ccc(NS(=O)(=O)c2cc3c4c(c2)CCN4C(=O)CC3)cc1 [MMV001255]	2	4	–	Inactive
OC1CCCCC1C1(NC(=S)Nc2ccccc2)CCCCC1 (stereo not drawn) [MMV665980]	-81	-2.1	4.93	–
CCOC(=O)c1c(NC(=O)c2ccccc2)sc2c(O)c(CN(CC)CC)ccc12 [MMV665831]	-58	-2.2	5.13	–
Cc1cc(=O)oc2c1ccc1oc(C(=O)c3ccccc3)c(C)c12 [MMV006753]	3	4	–	Inactive
Cc1cc(N(C)C)nc(Nc2ccc(NC(=O)Nc3ccccc3)cc2)n1 [MMV020243]	-73	-2.2	4.93	–
COc1cccc(NC(=O)[C@H](C(C)C)n2c(=O)[nH]c3ccccc3c2=O)c1 [MMV665878]	-82	-1.1	5.58	–
COc1ccc(Br)cc1C1Nc2ccc3ccccc3c2C2=C1C(=O)CC(c1ccccc1)C2 (stereo not drawn) [MMV020885]	-29	4	–	Inactive
O=C(CSc1ccc2nnc(-c3cccc(F)c3)n2n1)Nc1ccc2c(c1)OCO2 [MMV665918]	-14	4	–	Inactive
Cc1cc(NC(=O)C2c3ccccc3C(=O)N(CC(C)C)C2c2cccs2)no1 (stereo not drawn) [MMV006429]	-82	-1.1	5.48	–
CCCc1c(CC)c(=N)c2ccccc2n1C [MMV008416]	-53	-2.2	4.43	–
COc1cccc(C=Cc2nc(=O)c3ccccc3o2)c1OC [MMV666693]	19	4	–	Inactive
CCCCOc1ccc(C(=O)Nc2cc(C)on2)cc1 [MMV007906]	12	4	–	Inactive
COc1ccc(CN2CCCC(C(=O)c3ccc(C(F)(F)F)cc3)C2)c(O)c1 (stereo not drawn) [MMV666060]	-45	-1.2	5.98	–
CCCCNCC(O)(c1ccc(Cl)cc1)c1ccc(Cl)cc1 [MMV665929]	-73	-1.2	5.53	–
OC(CNCC1CCCO1)Cn1c2ccc(Cl)cc2c2cc(Cl)ccc21 (stereo not drawn) [MMV396736]	-70	-2.2	4.63	–
c1ccc2c(NCCc3c[nH]c4ccccc34)c3ccccc3nc2c1 [MMV006513]	-85	-2.1	4.78	–
Cl.N=c1n(CCN2CCCCC2)c2ccccc2n1CC(O)c1cccc(Br)c1 (stereo not drawn) [MMV665902]	-99	-1.1	5.43	–
